Structures are written as SMILES. ≈ marks a conversion by molar mass, not a printed value.

The test system of the experiment is P388 mouse leukemia cells. As to the kind of experiment: Activity against tumor cell growth (P388, MTT, 72 h). In kind it is cell-based. The note with it: P388 mouse leukemia cells, 72 h, 37° C., MTT; read-out: IC50 (50% growth inhibition concentration). As for the experimental part: Using a culture medium RPMI1640 supplemented with 10% inactivated bovine fetal serum, 2 mM glutamine, 100 μ/ml kanamycin sulfate, and 5 μM 2-hydroxyethyldisulfide (This culture medium is hereinafter referred to simply as "culture medium"), P388 mouse leukemia cells were diluted to a concentration of 1.5×10^5 cells/ml in the culture medium, and were placed in each well of 96-well multiplate in 60 μl portions. Separately, the test compound was dissolved in dimethylsulfoxide and was adequately diluted with the culture medium. The diluted solution containing test compound was added to the wells of the above plate respectively in 60 μl portions. Then the cells were incubated in a CO2 -incubator (5% CO2, 37° C.) for 72 hours.
The surviving cell numbers were measured according to the Mosmann's method (J. Immunol. Meth., 65 55-63, 1983) as follows. A 2.5 mg/ml solution of MTT (3-[4,5-dimethylthiazol-2-yl]-2,5-diphenyltetrazolium bromide) in Dulbecco's phosphate buffer solution (PBS) was prepared and added to each of the wells by 20 μl. The cells were further incubated for 3 hours. A 150 μl portion of 0.04N hydrochloric acid-isopropanol solution was added to each of the wells, and MTT-formazane formed was allowed to dissolve by pipetting. The absorbance of the solutions was measured at 540 nm taking the no-cell-containing [solution as the background. The 50% growth inhibition concentration (ICs50) was calculated from ratio of the absorbances of the treated samples to the absorbance of the no-medicine-treated sample, and from the concentration of the test compound.
Turning to `COC(=O)c1c(C(F)(F)F)[nH]c2c(O)cc3c(c12)[C@H](CCl)CN3C(=O)/C=C/c1ccc(OC)cc1` [Example 74, Methyl (1S)-1-chloromethyl-5-hydroxy-3-[2-(4-methoxyphenyl)ethylene-1-ylcarbonyl]-7-trifluoromethyl-1,2,3,6-tetrahydropyrrolo[3,2-e]indole-8-carboxylate], the IC50 came out at 1.3 ng/mL (≈ 2.55 nM). The value for `COC(=O)c1c(C(F)(F)F)[nH]c2c(O)cc3c(c12)[C@H](CCl)CN3C(=O)c1cc2cccc(OC)c2o1` [Example 70, Methyl (1S)-1-chloromethyl-5-hydroxy-3-(7-methoxybenzofuran-2-ylcarbonyl)-7-trifluoromethyl-1,2,3,6-tetrahydropyrrolo[3,2-e]indole-8-carboxylate] was 2 ng/mL (≈ 3.83 nM); that for `COC(=O)c1c(C(F)(F)F)[nH]c2c(O)cc3c(c12)C(CBr)CN3C(=O)c1cc2cc(NC(=O)c3cc4c(OC)c(OC)c(OC)cc4[nH]3)ccc2[nH]1` (centres unmarked) [Example 40, Methyl 1-bromomethyl-5-hydroxy-7-trifluoromethyl-3-[5-[(4,5,6-trimethoxy1H-indol-2-ylcarbonyl)amino]-1H-indol-2-ylcarbonyl]-1,2,3,6-tetrahydropyrrolo[3,2-e]indole-8-carboxylate] was 0.08 ng/mL (≈ 0.102 nM); that for `COC(=O)c1c(C(F)(F)F)[nH]c2c(O)cc3c(c12)C(CBr)CN3C(=O)c1cc2cc(NC(=O)c3ccc4ccccc4c3)ccc2[nH]1` (centres unmarked) [Example 41, Methyl 1-bromomethyl-5-hydroxy-3-[5-[(naphthalene-3-ylcarbonyl)amino]-1H-indol-2-ylcarbonyl]-7-trifluoromethyl-1,2,3,6-tetrahydropyrrolo[3,2-e]indole-8-carboxylate] was 1.6 ng/mL (≈ 2.27 nM). As to `COC(=O)c1c(C(F)(F)F)[nH]c2c1C13CC1CN(C(=O)c1cc4cc(NC(=O)c5cc6c(cn5)[nH]c5ccccc56)ccc4[nH]1)C3=CC2=O` (centres unmarked) [Example 33, Methyl 2-[5-[(9H-pyrido[3,4-b]indol-3-ylcarbonyl)amino]-1H-indol-2-ylcarbonyl]-6-trifluoromethyl-1,2,8,8a-tetrahydrocyclopropa[c]pyrrolo[3,2-e]indol-4 (5H)-one-7-carboxylate], the IC50 was 0.17 ng/mL (≈ 0.256 nM). Regarding `COC(=O)c1c(C(F)(F)F)[nH]c2c1[C@@]13C[C@@H]1CN(C(=O)c1cc4cc(NC(=O)OC(C)(C)C)ccc4[nH]1)C3=CC2=O` [Example 84, Methyl (7bR, 8aS)-2-[5-(t-butoxycarbonyl)amino-1H-indole-2-ylcarbonyl]-6-trifluoromethyl-1,2,8,8a-tetrahydrocyclopropa[c]pyrrolo[3,2-e]indole-4 (5H)-one-7-carboxylate], the IC50 came to 1.7 ng/mL (≈ 2.98 nM).

With `COC(=O)c1c(C(F)(F)F)[nH]c2c(O)cc3c(c12)[C@H](CCl)CN3C(=O)c1cc2c(OC)cccc2o1` [Example 66, Methyl (1S)-1-chloromethyl-5-hydroxy-3-(4-methoxybenzofuran-2-ylcarbonyl)-7-trifluoromethyl-1,2,3,6-tetrahydropyrrolo[3,2-e]indole-8-carboxylate], the IC50 came out at 0.77 ng/mL (≈ 1.47 nM). `COC(=O)c1c(C(F)(F)F)[nH]c2c(O)cc3c(c12)C(CBr)CN3C(=O)c1cc2cc(NC(=O)c3cc4c(cn3)[nH]c3ccccc34)ccc2[nH]1` (centres unmarked) [Example 45, Methyl 1-bromomethyl-5-hydroxy-3-[5-[(9H-pyrido[3,4-b]indol-3-ylcarbonyl)amino]-1H-indol-2-ylcarbonyl]-7-trifluoromethyl-1,2,3,6-tetrahydropyrrolo[3,2-e]indole-8-carboxylate]: the IC50 is 0.12 ng/mL (≈ 0.161 nM). Take `COC(=O)c1c(C(F)(F)F)[nH]c2c(O)cc3c(c12)C(CBr)CN3C(=O)c1cc2cc(NC(=O)c3cnc4ccccc4c3)ccc2[nH]1` (centres unmarked) [Example 42, Methyl 1-bromomethyl-5-hydroxy-3-[5-[(quinoline-3-ylcarbonyl)amino]-1H-indol-2-ylcarbonyl]-7-trifluoromethyl-1,2,3,6-tetrahydropyrrolo[3,2-e]indole-8-carboxylate]: the IC50 was 0.13 ng/mL (≈ 0.184 nM).

Turning to `COC(=O)c1c(C(F)(F)F)[nH]c2c(O)cc3c(c12)[C@H](CCl)CN3C(=O)c1cc2cc(OC)ccc2o1` [Example 67, Methyl (1S)-1-chloromethyl-5-hydroxy-3-(5-methoxybenzofuran-2-ylcarbonyl)-7-trifluoromethyl-1,2,3,6-tetrahydropyrrolo[3,2-e]indole-8-carboxylate], the IC50 came out at 0.026 ng/mL (≈ 0.0497 nM). For `COC(=O)c1c(C(F)(F)F)[nH]c2c(O)cc3c(c12)C(CBr)CN3C(=O)c1cc2cc(NC(=O)c3cc4cc(OC)c(OC)c(OC)c4[nH]3)ccc2[nH]1` (centres unmarked) [Example 39, Methyl 1-bromomethyl-5-hydroxy-7-trifluoromethyl-3-[5[(5,6,7-trimethoxy1H-indol-2-ylcarbonyl)amino]-1H-indol-2-ylcarbonyl]-1,2,3,6-tetrahydropyrrolo[3,2-e]indole-8-carboxylate], the IC50 was determined as 0.2 ng/mL (≈ 0.255 nM).

In the case of `COC(=O)c1c(C(F)(F)F)[nH]c2c(O)cc3c(c12)[C@H](CCl)CN3C(=O)c1cc2cc(OC)c(OC)c(OC)c2o1` [Example 69, Methyl (1S)-1-chloromethyl-5-hydroxy-7-trifluoromethyl-3-(5,6,7-trimethoxybenzofuran-2-ylcarbonyl)-1,2,3,6-tetrahydropyrrolo[3,2-e]indole-8-carboxylate], the IC50 stood at 0.046 ng/mL (≈ 0.0789 nM).

On to `COC(=O)c1c(C(F)(F)F)[nH]c2c1C13CC1CN(C(=O)c1cc4cc(NC(=O)c5ccc6ccccc6c5)ccc4[nH]1)C3=CC2=O` (centres unmarked) [Example 29, Methyl 3-[5-[(naphthalene-3-ylcarbonyl)amino]1H-indol-2-ylcarbonyl]-6-trifluoromethyl-1,2,8,8a-tetrahydrocyclopropa[c]pyrrolo[3,2-e]indol-4 (5H)-one-7-carboxylate], for which the IC50 was determined as 1.2 ng/mL (≈ 1.92 nM).

Turning to `COC(=O)c1c(C(F)(F)F)[nH]c2c(O)cc3c(c12)[C@H](CCl)CN3C(=O)c1cc2cc(NC(=O)OC(C)(C)C)ccc2[nH]1` [Example 64, Methyl (1S)-3-[5-(t-butoxycarbonyl)amino-1H-indol-2-ylcarbonyl]-1-chloromethyl-5-hydroxy-7-trifluoromethyl-1,2,3,6-tetrahydropyrrolo[3,2-e]indole-8-carboxylate], the IC50 is 3.9 ng/mL (≈ 6.43 nM).

Consider `COC(=O)c1c(C(F)(F)F)[nH]c2c1C13CC1CN(C(=O)c1cc4cc(NC(=O)c5cc6cccc(OC)c6o5)ccc4[nH]1)C3=CC2=O` (centres unmarked) [Example 25, Methyl 2-[5-[(7-methoxybenzofuran-2-ylcarbonyl)amino]-1H-indol-2-ylcarbonyl]-6-trifluoromethyl-1,2,8,8a-tetrahydrocyclopropa[c]pyrrolo[3,2-e]indole-4 (5H)-one-7-carboxylate], for which the IC50 is 0.63 ng/mL (≈ 0.977 nM). Consider `COC(=O)c1c(C(F)(F)F)[nH]c2c(O)cc3c(c12)C(CBr)CN3C(=O)c1cc2cc(NC(=O)c3cc4c(OC)c(OC)c(OC)cc4cn3)ccc2[nH]1` (centres unmarked) [Example 44, Methyl 1-bromomethyl-5-hydroxy-7-trifluoromethyl-3-[5-[(5,6,7-trimethoxyisoquinolin-3-ylcarbonyl)amino]-1H-indol-2-ylcarbonyl]-1,2,3,6-tetrahydropyrrolo[3,2-e]indole-8-carboxylate], for which the IC50 turned out to be 0.07 ng/mL (≈ 0.0879 nM). Consider `COC(=O)c1c(C(F)(F)F)[nH]c2c(O)cc3c(c12)[C@H](CCl)CN3C(=O)c1cc2cc(NC(=O)CN(C)C)ccc2[nH]1` [Example 65, Methyl (1S)-1-chloromethyl-3-[5 (dimethylaminomethylcarbonyl)amino-1H-indol-2-ylcarbonyl]-5-hydroxy-7-trifluoromethyl-1,2,3,6-tetrahydropyrrolo[3,2-e]indole-8-carboxylate], for which the IC50 came to 0.11 ng/mL (≈ 0.186 nM). The same measure for `COC(=O)c1c(C(F)(F)F)[nH]c2c1C13CC1CN(C(=O)c1cc4cc(NC(=O)c5cnc6ccccc6c5)ccc4[nH]1)C3=CC2=O` (centres unmarked) [Example 30, Methyl 3-[5-[(quinoline-3-ylcarbonyl)amino]-1H-indol-2-ylcarbonyl]-6-trifluoromethyl-1,2,8,8a-tetrahydrocyclopropa[c]pyrrolo[3,2-e]indol-4 (5H)-one-7-carboxylate]: 0.22 ng/mL (≈ 0.352 nM). In the case of `COC(=O)c1c(C(F)(F)F)[nH]c2c(O)cc3c(c12)C(CCl)CN3C(=O)c1cc2cc(NC(=O)c3cc4ccccc4[nH]3)ccc2[nH]1` (centres unmarked) [Example 9, Methyl 1-chloromethyl-5-hydroxy-3-[5-[(1H-indol-2-ylcarbonyl)amino]-1H-indol-2-ylcarbonyl]-7-trifluoromethyl-1,2,3,6-tetrahydropyrrolo[3,2-e]indole-8-carboxylate], the IC50 was found to be 0.76 ng/mL (≈ 1.17 nM). Consider `COC(=O)c1c(C(F)(F)F)[nH]c2c(O)cc3c(c12)[C@H](CCl)CN3C(=O)c1cc2ccc(OC)cc2o1` [Example 68, Methyl (1S)-1-chloromethyl-5-hydroxy-3-(6-methoxybenzofuran-2-ylcarbonyl)-7-trifluoromethyl-1,2,3,6-tetrahydropyrrolo[3,2-e]indole-8-carboxylate], for which the IC50 came to 0.051 ng/mL (≈ 0.0975 nM).

The values are drawn from patent US5629430A, “Trifluoromethylpyrroloindolecarboxylic acid ester and process for production thereof” (Kyorin Pharmaceutical Co., Ltd., priority 1992, dated 1997).
